The values below come from US7812031B2, “Pyrimidine derivatives as orexin receptor antagonists” (Sanofi-Aventis, priority 2004, dated 2010).

Series [1] addresses T1, human recombinant orexin-1 (hr-OX-1) receptor (Homo sapiens, UniProt O43613).
T1 construct: expressed in transfected cells; host or cells: CHO (CHO-hr-OX-1 cells), purified plasma membrane fraction
T1 sequence (O43613 1-425): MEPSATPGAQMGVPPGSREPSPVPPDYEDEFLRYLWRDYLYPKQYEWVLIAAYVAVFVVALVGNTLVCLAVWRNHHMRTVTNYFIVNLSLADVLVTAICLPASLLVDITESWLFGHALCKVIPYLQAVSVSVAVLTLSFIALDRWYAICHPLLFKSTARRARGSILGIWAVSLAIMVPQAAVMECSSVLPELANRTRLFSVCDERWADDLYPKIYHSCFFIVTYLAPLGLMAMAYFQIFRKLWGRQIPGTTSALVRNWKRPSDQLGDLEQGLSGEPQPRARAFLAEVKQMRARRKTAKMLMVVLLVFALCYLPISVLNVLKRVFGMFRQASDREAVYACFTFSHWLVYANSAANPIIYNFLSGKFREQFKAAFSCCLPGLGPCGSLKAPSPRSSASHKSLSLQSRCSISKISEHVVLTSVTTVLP
Kind of series: hr-125I-orexin-A radioligand competition binding, orexin-1 receptor. The note with it: displacement of 125I-orexin-A, CHO-hr-OX-1 plasmamembranes, 25° C., 60 minutes; read-out: Orex-1 IC50. The protocol:
(§1) In vitro radioligand binding assays were used for determination of the affinities of the compounds for both the orexin-1 and orexin-2 receptors.
(§2) In the frame of hr-^125I-orexin-A radioligand competition (displacement) experiments a fixed concentration of hr-^125I-orexin-A is incubated with increasing concentrations of unlabeled test compound in the presence of highly purified plasmamembranes bearing either the human recombinant orexin-1 (hr-OX-1) or the human recombinant orexin-2 (hr-OX-2) receptors. Specific binding of hr-^125I-orexin-A to plasmamembranes is measured at each concentrations of the unlabeled compound and thus a competition curve is generated. The concentration of unlabeled compound displacing 50% of specific binding (IC50) is calculated. In case of competitive interaction the binding affinity constant of the unlabeled compound (K1) is calculated according to the Cheng-Prusoff equation (K1=IC50/(1+L*/KD). Affinity of unlabeled compound for the receptor is equal to 1/K1.
(§3) Culturing the Chinese hamster ovarian cells expressing human recombinant orexin-1 or orexin-2 receptor proteins (CHO-hr-OX-1 or CHO-hr-OX-2 cells) was carried out in cell culture medium (MEM medium, supplemented with 40 mg/l prolin, 20 mg/l gentamycin, 300 mg/l geneticin, 10% dialysed fetal calf serum).
(§4) Adherent cells were plated into Greiner flasks (175 cm^2). 4-6 days later culture medium was removed and cells were scarped in calcium- and magnesium-free phosphate buffered saline (PBS, 20 ml/flask). The cell suspension was centrifuged at 1,000 g for 5 minutes (4° C.). The resulting pellet was resuspended and homogenized with a teflon pestle (4° C.), then layered onto a discontinuous sucrose gradient and centrifuged at 105,000 g. Plasmamembrane fraction accumulated in the interface between 14 and 34% sucrose layers was separated and pelleted by a further centrifugation step at 105,000 g for 60 min (4° C.). The final pellet was resuspended in binding assay buffer and stored at −80° C. up to the day of radioligand binding experiment.
(§5) For ^125I-orexin-A competition binding studies, aliquots of cell membrane fractions containing either hr-orexin-1 or hr-orexin-2 receptors were incubated with ^125I-orexin-A in binding assay buffer at 25° C. for 60 minutes. Nonspecific binding was defined by 1 μM hr-orexin-A in both cases.
(§6) Test compounds were dissolved at a concentration of 1 mM in dimethylsulfoxide (DMSO). Serial dilution series were prepared from stock solutions (100% DMSO) with binding assay buffer in such a way that each samples contained a final concentration of 1% of DMSO in the receptor binding reaction mixture. After the incubation, samples were filtered through Whatman GF/C glass fibre filters using a SKATRON cell harvester, and the filters were washed with 5 ml of ice-cold buffer The radioactivity remained on the filter was counted in a gamma counter (Wallac Automatic Gamma Counter 1470 Wizard).

Series [2] deals with T2, human recombinant orexin-2 (hr-OX-2) receptor (Homo sapiens, UniProt O43614).
T2 construct: expressed in transfected cells; host or cells: CHO (CHO-hr-OX-2 cells), purified plasma membrane fraction
T2 sequence (O43614 1-444): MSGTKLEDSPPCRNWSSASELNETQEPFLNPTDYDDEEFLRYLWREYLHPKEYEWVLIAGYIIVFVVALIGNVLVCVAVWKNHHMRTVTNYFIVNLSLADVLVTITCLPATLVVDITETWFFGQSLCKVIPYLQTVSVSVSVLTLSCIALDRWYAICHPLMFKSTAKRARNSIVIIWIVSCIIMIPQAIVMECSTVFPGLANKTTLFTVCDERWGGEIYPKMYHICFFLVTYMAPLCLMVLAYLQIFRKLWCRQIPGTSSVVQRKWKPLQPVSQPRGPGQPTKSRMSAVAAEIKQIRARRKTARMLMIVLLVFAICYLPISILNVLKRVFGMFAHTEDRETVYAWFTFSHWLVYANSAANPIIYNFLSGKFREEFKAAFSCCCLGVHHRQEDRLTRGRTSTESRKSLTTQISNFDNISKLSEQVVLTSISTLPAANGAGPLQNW
The series is described as follows: hr-125I-orexin-A radioligand competition binding, orexin-2 receptor. To be noted: displacement of 125I-orexin-A, CHO-hr-OX-2 plasmamembranes, 25° C., 60 minutes; read-out: Orex-2 IC50. The protocol:
as §1, §2, §3, §4, §5, §6
For orientation: Loss of bound radioactivity is the signal in a displacement assay; it reports binding, not function.

Molecules are shown by their SMILES. pIC50: −log10 of the molar value.

As a reminder, the pIC50 is the negative decadic logarithm of the IC50, by convention in mol/L. For `CN(CC(O)c1cccc(OCc2ccccc2)c1)C(=O)c1cnc(N(C)C)nc1-c1ccccc1` (centres unmarked) [2-Dimethylamino-4-phenylpyrimidine-5-carboxylic acid [2-(3-benzyloxyphenyl)-2-hydroxyethyl]methylamide], the pIC50 in series [1] is 7.52; in series [2], 5.44.

For `CC(C(O)c1ccccc1)N(C)C(=O)c1cnc(NCc2ccccn2)nc1-c1ccccc1` (centres unmarked) [4-Phenyl-2-[(pyridin-2-ylmethyl)amino]pyrimidin-5-carboxylic acid (2-hydroxy-1-methyl-2-phenylethyl)methylamide], the pIC50 was 7.92 in series [1] and 5.27 in series [2].

For `COc1ccccc1C(=O)Nc1cccc(C(O)CN(C)C(=O)c2cnc(N(C)C)nc2-c2ccccc2)c1` (centres unmarked) [2-Dimethylamino-4-phenylpyrimidin-5-carboxylic acid {2-hydroxy-2-[3-(2-methoxy-benzoylamino)phenyl]ethyl}methylamide], the pIC50 was 7.82 in series [1] and 6.49 in series [2].

With `Cc1ccccc1-c1nc(N(C)Cc2ccccc2)ncc1C(=O)N(C)CC(O)c1cccc(O)c1` (centres unmarked) [2-(Benzylmethylamino)-4-(2-methylphenyl)pyrimidine-5-carboxylic acid [2-hydroxy-2-(3-hydroxyphenyl)ethyl]methylamide], the pIC50 is 7.66 in series [1] and 5.24 in series [2].

As usually defined, the melting point is the temperature of the solid-liquid transition. Compound `CN(CC(O)c1cccc(OCc2ccccc2)c1)C(=O)c1cnc(N(C)C)nc1-c1ccc(Cl)c(Cl)c1` (centres unmarked) [Example 59, 2-Dimethylamino-4-(3,4-dichlorophenyl)pyrimidine-5-carboxylic acid [2-(3-benzyloxyphenyl)-2-hydroxyethyl]methylamide] returned a melting point of 68 to 70 °C.

In the case of `CN(CC(O)c1cccc(OC(=O)C(C)(C)C)c1)C(=O)c1cnc(N(C)C)nc1-c1ccccc1Cl` (centres unmarked) [2,2-Dimethylpropionic acid 3-{2-[(2-dimethylamino-4-(2-chlorophenyl)pyrimidine-5-carbonyl)methylamino]1-hydroxyethyl}phenyl ester], the pIC50 is 7.52 in series [1] and 5.54 in series [2].

As to `CN(Cc1ccccc1)c1ncc(C(=O)N2CCCCC2C(O)c2ccccc2)c(-c2ccccc2)n1` (racemic), the pIC50 in series [1] is 7.96; in series [2], 5.17.

`CN(CC(O)c1cccc(O)c1)C(=O)c1cnc(NCc2cccs2)nc1-c1ccccc1` (centres unmarked) (hydrate or solvate) [Example 17, 4-Phenyl-2-[(thiophen-2-ylmethyl)amino]pyrimidine-5-carboxylic acid [2-hydroxy-2-(3-hydroxyphenyl)ethyl]methylamide] showed a melting point of 85 to 87 °C.
